Experimental data taken from US8242102B2, “Quinoline compounds suitable for treating disorders that respond to modulation of the serotonin 5-HT6 receptor” (Abbott GmbH & Co. KG, priority 2007, dated 2012).
Structures can show the parent of a compound that is named as a salt.

Tests used:
h-5-HT6 receptor = target: T1, h-5-HT6 receptor (Homo sapiens, UniProt P50406); assay: 5-HT6 receptor binding assay, displacement of [3H]-LSD; conditions: membranes of HEK293 cells expressing h-5-HT6, 1 nM [3H]-LSD
T1 construct: expressed in transfected cells; host or cells: HEK293
T1 sequence (P50406 whole entry): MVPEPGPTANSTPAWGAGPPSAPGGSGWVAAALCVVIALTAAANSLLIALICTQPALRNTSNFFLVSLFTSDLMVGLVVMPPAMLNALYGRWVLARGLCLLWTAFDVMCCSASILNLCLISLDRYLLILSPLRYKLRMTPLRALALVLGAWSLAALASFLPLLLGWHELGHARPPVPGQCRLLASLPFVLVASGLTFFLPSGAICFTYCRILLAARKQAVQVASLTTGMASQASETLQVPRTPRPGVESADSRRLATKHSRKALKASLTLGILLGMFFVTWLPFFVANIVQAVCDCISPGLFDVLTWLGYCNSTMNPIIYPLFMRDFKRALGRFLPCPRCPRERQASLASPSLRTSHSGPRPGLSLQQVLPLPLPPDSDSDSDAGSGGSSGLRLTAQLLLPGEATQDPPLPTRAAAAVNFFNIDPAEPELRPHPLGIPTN
Experimental: Displacement of Radioligands Binding to the Following Cloned Human Receptors
(§1) 1. Preparation of Membranes by Ultrasonic Treatment and Differential Centrifugation
Cells from stable clonal cell lines expressing the corresponding receptor (5-HT6, 1-adrenergic, dopamine D2 or histamine H1 receptors) were washed with PBS (w/o Ca^++, Mg^++) and harvested in PBS with 0.02% EDTA. The cells were collected by centrifugation at 500 g for 10 min. at 4° C., washed with PBS and centrifuged (500 g, 10 min. 4° C.). The pellets were stored at −80° C. until use. For membrane preparation, the thawed cell pellet was resuspended in ice-cold sucrose buffer (0.25 M sucrose, 10 mM Hepes (pH 7.4), 1 mM Phenylmethylsulfonyl fluoride (PMSF) in DMSO, […] Pepstatin-A, 3 mM EDTA, 0.025% Bacitracin) and homogenized with a Branson Sonifier W-250 (Settings: Timer 4; Output Control 3; Duty Cycle constant; 2 to 3 cycles). Cell disruption was checked with the aid of a microscope. Remaining unbroken cells were pelleted at 1,000 g for 10 min. at 4° C. The sucrose buffer supernatant was then centrifuged at 60,000 g for 1 h at 4° C. (Beckman Ultrazentrifuge XL 80). The pellet was resuspended in 30 ml ice-cold Tris buffer (20 mM TRIS (pH 7.4), […] Pepstatin A, 0.1 mM PMSF, 3 mM EDTA) by pipetting through a 10 ml serological pipet and centrifuged for 1 h at 4° C. at 60,000 g. A final resuspension was performed in a small volume of ice-cold Tris buffer (see above) by pressing through a serological pipet followed by ultrasonic treatment with a Branson Sonifier W-250 (Settings: Timer 1; Output Control 3; Duty Cycle constant; 1 cycle). Protein concentration was determined (BCA-Kit; Pierce) and aliquots stored at −80° C. or in liquid nitrogen for long-term storage.
(§2) 2. Receptor Binding Experiments
All receptor binding experiments were carried out in the corresponding assay buffer in a total volume of 200 μl in the presence of various concentrations of test compound (10^−5 M to 10^−9 M, tenfold serial dilution, duplicate determinations). The assays were terminated by filtration on polyethylenimine (PEI 0.1% or 0.3%) presoaked Packard Unifilter Plates (GF/C or GF/B) with a Tomtec MachIII U 96 well-plate harvester. After the plates had been dried for 2 h at 55° C. in a drying chamber scintillation cocktail (BetaPlate Scint; PerkinElmer) was added. Radioactivity was measured in a Microbeta Trilux two hours after the addition of the scintillation mixture. Data derived from liquid scintillation counting were analysed by iterative non-linear regression analysis with the use of the Statistical Analysis System (SAS): a program similar to “LIGAND” as described by Munson and Rodbard (Analytical Biochemistry 107, 220-239 (1980).
a) 5-HT6 Receptor Binding Assay
HEK293 cells stably expressing the h-5-HT6 receptor (NCBI Reference Sequence XM 001435) were cultured in RPMI1640 medium supplemented with 25 mM HEPES, 10% fetal calf serum and 1-2 mM glutamine. The membrane preparation was performed as described in section 1. […] Non-specific binding was defined with 1 μM methiothepin. The binding reaction was carried out for 3.5 h at room temperature. During the incubation, the plates were shaken on a plate shaker at 100 rpm and terminated by filtration on Packard Unifilter GF/C (0.1% PEI) plates, followed by 2 wash cycles with ice-cold 50 mM Tris-HCl, 5 mM CaCl2.
Data derived from liquid scintillation counting were analyzed by iterative non-linear regression analysis with the use of the Statistical Analysis System (SAS): a program similar to “LIGAND” as described by Munson and Rodbard (Anal. Biochem. 1980, 107, 220-239). Fitting was performed according to formulae described by Feldman (Anal. Biochem. 1972, 48, 317-338). IC50, nH and Ki values were expressed as geometrical mean.

dopamine D2 receptor = target: T2, dopamine D2 receptor (Homo sapiens, UniProt P14416); assay: Dopamine D2 receptor binding assay, displacement of [125I]-iodospiperone; conditions: saturation binding, HEK293 dopamine D2 membranes; read-out: KD of radioligand
T2 construct: expressed in transfected cells; host or cells: HEK293
T2 sequence (P14416 whole entry): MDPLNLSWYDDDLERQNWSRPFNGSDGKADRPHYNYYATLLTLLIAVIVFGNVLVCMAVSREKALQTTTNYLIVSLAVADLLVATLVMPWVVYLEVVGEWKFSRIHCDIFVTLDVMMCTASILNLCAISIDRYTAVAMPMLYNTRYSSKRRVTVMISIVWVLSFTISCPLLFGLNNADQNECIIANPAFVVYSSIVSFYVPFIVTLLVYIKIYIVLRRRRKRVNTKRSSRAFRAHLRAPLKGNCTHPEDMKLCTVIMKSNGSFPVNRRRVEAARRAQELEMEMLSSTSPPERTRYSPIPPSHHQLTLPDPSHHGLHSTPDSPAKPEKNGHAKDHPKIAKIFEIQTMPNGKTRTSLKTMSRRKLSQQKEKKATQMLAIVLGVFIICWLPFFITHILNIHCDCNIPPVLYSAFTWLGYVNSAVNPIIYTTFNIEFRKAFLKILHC
Experimental: as §1
The pellets were stored at −80° C. until use. […] (Beckman Ultrazentrifuge XL 80).
as §2
a) Dopamine D2 Receptor Binding Assay
Non-specific binding was defined with 1 μM haloperidol.

| Compound | Ki (h-5-HT6 receptor) [nM] | Kd (dopamine D2 receptor) [nM] |
| --- | --- | --- |
| O=S(=O)(c1ccccc1)c1cnc2c(C3CNC3)cccc2c1 [Example 1, 8-(Azetidin-3-yl)-3-(phenylsulfonyl)quinoline hydrochloride] | < 100 |  |
| O=S(=O)(c1ccccc1)c1cnc2c(C3CCNCC3)cccc2c1 [Example 2, 3-(Phenylsulfonyl)-8-(piperidin-4-yl)quinoline hydrochloride] | < 100 |  |
| O=S(=O)(c1ccccc1)c1cnc2c(C3CCN(Cc4ccccc4)C3)cccc2c1 (centres unmarked) [Example 3, 8-(1-Benzylpyrrolidin-3-yl)-3-(phenylsulfonyl)quinoline] | > 1000 |  |

Other lines, results leading:

| Ki (h-5-HT6 receptor) [nM] | Kd (dopamine D2 receptor) [nM] | Compound |
| --- | --- | --- |
| < 100 |  | O=S(=O)(c1cccc(C(F)(F)F)c1)c1cnc2c(C3CCNCC3)cccc2c1 [Example 4, 8-(Piperidin-4-yl)-3-(3-(trifluoromethyl)phenylsulfonyl)quinoline] |
| < 100 |  | O=S(=O)(c1ccc(F)cc1)c1cnc2c(C3CCNCC3)cccc2c1 [Example 5, 3-(4-Fluorophenylsulfonyl)-8-(piperidin-4-yl)quinoline] |
| < 100 |  | O=S(=O)(c1cccc(Br)c1)c1cnc2c(C3CCNCC3)cccc2c1 [Example 6, 3-(3-Bromophenylsulfonyl)-8-(piperidin-4-yl)quinoline] |
| < 100 |  | O=S(=O)(c1cccc(N2CCCC2)c1)c1cnc2c(C3CCNCC3)cccc2c1 [Example 7, 8-(Piperidin-4-yl)-3-(3-(pyrrolidin-1-yl)phenylsulfonyl)quinoline] |
|  | 0.22 | iodospiperone [[^125I]-iodospiperone] |
